In patent publication US8536187B2 (Gilead Sciences, Inc., priority 2008, dated 2013):
pEC50: −log10 of the molar value.

Experiments:
[1] = tested on: HCV replicon in human hepatoma Huh-7 cell line; assay: Anti-HCV replicon assay, EC50 (luciferase luminescence); assay type: cell-based; conditions: Hepatitis C virus, Huh-7, 72 h
Method: (§1) The anti-HCV activity of the pyrido[3,2-d]pyrimidine derivatives of this invention was tested in a human hepatoma Huh-7 cell line harboring a HCV replicon. The assay comprised the following steps: • Step 1: compound preparation and serial dilution: serial dilution is performed in 50% DMSO in a 384-well plate. A solution containing a compound at 100-fold concentration of the starting final serial dilution concentration was prepared in 50% DMSO and added to the pre-specified wells in column 1 of a polypropylene 384-well plate. The plate was then placed on a Precision 2000 Workstation to start the serial dilution. After the serial dilution, a volume of 2 μL of the solution was transferred from the 384-well plate to a 96-well cell culture plate containing 100 μL of cell media on a Biomek FX Workstation. The DMSO concentration in the final assay condition was 0.5% after cells are added to the plate and the total volume in each well is brought to 200 μL. • Step 2: to each well of the serial dilution plate prepared above, 100 μL of cell media containing 6000 suspended Huh-7 HCV replicon cells was added with a Multidrop workstation. The plates were incubated for 3 days at 37° C. with 5% CO2. • Step 3: detection: • a) for the EC50 assay, the media in a 96-well cell culture plate was aspirated with a Biotek EL405 plate-washer. A volume of 200 μL of a solution containing a 1:1 mixture of cell-lysis buffer (Promega, Luciferase Cell Culture Lysis 5× Reagent, cat. #E1531) and luciferase substrate solution (Promega, Luciferase Assay, cat.# E4550) was added to each well of the plate with Multidrop. The plate was incubated for 30 minutes at room temperature before the luminescence signal was measured with a TopCount plate-reader. • b) for the CC50 assay, a volume of 100 μL of pre-mixed CellTiter-Glo (Promega, cat.# G7572) solution is added directly to the cell culture in each well of the plate and the luminescence signal is measured with a TopCount plate-reader after 10 minutes of incubation at room temperature.

[2] = CC50 assay (CellTiter-Glo) in Huh-7 HCV replicon cells; assay type: cell-based; conditions: human
Method: as §1

Row | SMILES | pEC50 [1] | CC50 at 3 days ([2]; Table 1, 3 days incubation) [nM] | CC50 at 3 days ([2]; Table 2, 3 days incubation) [nM]
1 | CS(=O)(=O)c1cccc(-c2ccc3nc(NCc4ccc(S(N)(=O)=O)cc4)nc(OC4CC4)c3n2)c1 [Example 22, 4-{[4-Cyclopropoxy-6-(3-methanesulfonyl-phenyl)-pyrido[3,2-d]pyrimidin-2-ylamino]-methyl}-benzenesulfonamide] | > 7.00 | > 25000 | 
2 | NS(=O)(=O)c1ccc(CNc2nc(NC3(C(F)(F)F)CC3)c3nc(-c4ccc(F)cc4)ccc3n2)cc1 [Example 23, 4-{[6-(4-fluoro-phenyl)-4-(1-trifluoromethyl-cyclopropylamino)-pyrido[3,2-d]pyrimidin-2-ylamino]-methyl}-benzenesulfonamide] | > 7.00 |  | 1000 to 10000
3 | C[C@@H](Nc1nc(NC2(C(F)(F)F)CC2)c2nc(-c3ccc(F)cc3)ccc2n1)c1ccc(S(N)(=O)=O)cc1 [Example 24, (R)-4-{1-[6-(4-fluorophenyl)-4-(1-trifluoromethyl-cyclopropylamino)-pyrido[3,2-d]pyrimidin-2-ylamino]-ethyl}-benzenesulfonamide] | > 7.00 |  | > 10000
4 | NS(=O)(=O)c1cc(CNc2nc(NC3(C(F)(F)F)CC3)c3nc(-c4ccc(F)cc4)ccc3n2)ccc1F [Example 25, 2-fluoro-5-{[6-(4-fluorophenyl)-4-(1-trifluoromethyl-cyclopropylamino)-pyrido[3,2-d]pyrimidin-2-ylamino]-methyl}-benzenesulfonamide] | > 7.00 |  | > 10000
5 | NS(=O)(=O)c1cc(CNc2nc(NC3(C(F)(F)F)CC3)c3nc(-c4ccc(F)cc4)ccc3n2)cc(C(F)(F)F)c1 [Example 26, 3-{[6-(4-fluorophenyl)-4-(1-trifluoromethyl-cyclopropylamino)-pyrido[3,2-d]pyrimidin-2-ylamino]-methyl}-5-trifluoromethyl-benzenesulfonamide] | 6.60 to 7.00 |  | > 10000
6 | NS(=O)(=O)c1cc(Cl)cc(CNc2nc(NC3(C(F)(F)F)CC3)c3nc(-c4ccc(F)cc4)ccc3n2)c1 [Example 27, 3-chloro-5-{[6-(4-fluorophenyl)-4-(1-trifluoromethyl-cyclopropylamino)-pyrido[3,2-d]pyrimidin-2-ylamino]-methyl}-benzenesulfonamide] | 6.60 to 7.00 |  | > 10000
7 | COc1ccc(-c2ccc3nc(NCc4ccc(S(N)(=O)=O)cc4)nc(NC4(C(F)(F)F)CC4)c3n2)cc1S(C)(=O)=O [Example 28, 4-{[6-(3-Methanesulfonyl-4-methoxy-phenyl)-4-(1-trifluoromethyl-cyclopropylamino)-pyrido[3,2-d]pyrimidin-2-ylamino]-methyl}-benzenesulfonamide] | > 7.00 |  | 1000 to 10000
8 | Cc1ccc(-c2ccc3nc(NCc4ccc(S(N)(=O)=O)cc4)nc(NC4(C(F)(F)F)CC4)c3n2)cc1S(C)(=O)=O [Example 29, 4-{[6-(3-methanesulfonyl-4-methylphenyl)-4-(1-trifluoromethyl-cyclopropylamino)-pyrido[3,2-d]pyrimidin-2-ylamino]-methyl}-benzenesulfonamide] | > 7.00 |  | 1000 to 10000
9 | COCc1ccc(-c2ccc3nc(NCc4ccc(S(N)(=O)=O)cc4)nc(NC4(C(F)(F)F)CC4)c3n2)cc1S(C)(=O)=O [Example 30, 4-{[6-(3-methanesulfonyl-4-methoxymethylphenyl)-4-(1-trifluoromethyl-cyclopropylamino)-pyrido[3,2-d]pyrimidin-2-ylamino]-methyl}-benzenesulfonamide] | > 7.00 |  | > 10000
10 | CC(Cn1cncn1)Nc1nc(NC2(C(F)(F)F)CC2)c2nc(-c3ccc(N)nc3)ccc2n1 (centres unmarked) [Example 31, 6-(6-amino-pyridin-3-yl)-N2-(1-methyl-2-[1,2,4]triazol-1-yl-ethyl)-N4-(1-trifluoromethyl-cyclopropyl)-pyrido[3,2-d]pyrimidine-2,4-diamine] | > 7.00 |  | > 10000
11 | C[C@@H](Nc1nc(OC2CC2)c2nc(C#CC3CC3)ccc2n1)c1ccc(S(N)(=O)=O)cc1 [Example 32, (R)-4-(1-(4-cyclopropoxy-6-(2-cyclopropylethynyl)pyrido[3,2-d]pyrimidin-2-ylamino)ethyl)benzenesulfonamide] | > 7.00 |  | > 10000
12 | Cc1ccc(-c2ccc3nc(NCc4cccc(S(C)(=O)=O)c4)nc(NC4(C(F)(F)F)CC4)c3n2)cc1S(C)(=O)=O [Example 34, N^2-(3-(methylsulfonyl)benzyl)-6-(4-methyl-3-(methylsulfonyl)phenyl)-N^4-(1-(trifluoromethyl)cyclopropyl) pyrido[3,2-d]pyrimidine-2,4-diamine] | > 7.00 |  | 1000 to 10000
13 | COc1ccc(-c2ccc3nc(NCc4cccc(S(C)(=O)=O)c4)nc(NC4(C(F)(F)F)CC4)c3n2)cc1S(C)(=O)=O [Example 35, N^2-(3-(methylsulfonyl)benzyl)-6-(4-methoxy-3-(methylsulfonyl)phenyl)-N^4-(1-(trifluoromethyl)cyclopropyl) pyrido[3,2-d]pyrimidine-2,4-diamine] | > 7.00 |  | 1000 to 10000
14 | CS(=O)(=O)c1cc(-c2ccc3nc(NCc4cc(F)cc(S(N)(=O)=O)c4)nc(NC4(C(F)(F)F)CC4)c3n2)ccc1Cl [Example 36, 3-((6-(4-chloro-3-(methylsulfonyl)phenyl)-4-(1-(trifluoromethyl)cyclopropyl-amino)pyrido[3,2-d]pyrimidin-2-ylamino)methyl)-5-fluorobenzenesulfonamide] | > 7.00 |  | 1000 to 10000
15 | NS(=O)(=O)c1cc(-c2ccc3nc(NCc4ccc(-n5cncn5)cc4)nc(NC4(C(F)(F)F)CC4)c3n2)ccc1Cl [Example 37, 5-(2-(4-(1H-1,2,4-triazol-1-yl)benzylamino)-4-(1-(trifluoromethyl)cyclopropyl-amino)pyrido[3,2-d]pyrimidin-6-yl)-2-chlorobenzenesulfonamide] | > 7.00 |  | 1000 to 10000
16 | CC(C)(C)NS(=O)(=O)c1cc(F)cc(CNc2nc(NC3(C(F)(F)F)CC3)c3nc(-c4ccc(Cl)c(S(C)(=O)=O)c4)ccc3n2)c1 [Example 38, N-tert-butyl-3-((6-(4-chloro-3-(methylsulfonyl)phenyl)-4-(1-(trifluoromethyl)cyclopropyl-amino)pyrido[3,2-d]pyrimidin-2-ylamino)methyl)-5-fluorobenzenesulfonamide] | > 7.00 |  | > 10000
17 | COc1ccc(-c2ccc3nc(NCc4cccc(-n5cncn5)c4)nc(NC4(C(F)(F)F)CC4)c3n2)cc1S(C)(=O)=O [Example 39, N^2-(3-(1H-1,2,4-triazol-1-yl)benzyl)-6-(4-methoxy-3-(methylsulfonyl)phenyl)-N^4-(1-(trifluoromethyl)cyclopropyl) pyrido[3,2-d]pyrimidine-2,4-diamine] | > 7.00 |  | > 10000
18 | COc1ccc(-c2ccc3nc(NCc4cc(F)cc(F)c4)nc(NC4(C(F)(F)F)CC4)c3n2)cc1S(C)(=O)=O [Example 40, N^2-(3,5-difluorobenzyl)-6-(4-methoxy-3-(methylsulfonyl)phenyl)-N^4-(1-(trifluoromethyl)cyclopropyl)pyrido[3,2-d] pyrimidine-2,4-diamine] | > 7.00 |  | 1000 to 10000
19 | NS(=O)(=O)c1ccc(Cl)c(CNc2nc(NC3(C(F)(F)F)CC3)c3nc(-c4ccc(F)cc4)ccc3n2)c1 [Example 41, 4-chloro-3-((6-(4-fluorophenyl)-4-(1-(trifluoromethyl)cyclopropyl-amino)pyrido[3,2-d]pyrimidin-2-ylamino)methyl)benzene-sulfonamide] | 6.60 to 7.00 |  | 1000 to 10000
20 | Cc1ccc(-c2ccc3nc(NCc4ccc(-n5cncn5)cc4)nc(NC4(C(F)(F)F)CC4)c3n2)cc1S(N)(=O)=O [Example 42, 5-(2-(4-(1H-1,2,4-triazol-1-yl)benzylamino)-4-(1-(trifluoromethyl)cyclopropyl-amino)pyrido[3,2-d]pyrimidin-6-yl)-2-methylbenzene-sulfonamide] | > 7.00 |  | 1000 to 10000
21 | NS(=O)(=O)c1ccc(CNc2nc(NC3(C(F)(F)F)CC3)c3nc(-c4ccc(F)cc4)ccc3n2)c(Cl)c1 [Example 43, 3-chloro-4-((6-(4-fluorophenyl)-4-(1-(trifluoromethyl)cyclopropyl-amino)pyrido[3,2-d]pyrimidin-2-ylamino)methyl)benzene-sulfonamide] | 5.70 to 6.60 |  | > 10000
22 | COc1ccc(-c2ccc3nc(NCc4ccc(F)c(F)c4)nc(NC4(C(F)(F)F)CC4)c3n2)cc1S(C)(=O)=O [Example 44, N^2-(3,4-difluorobenzyl)-6-(4-methoxy-3-(methylsulfonyl)phenyl)-N^4-(1-(trifluoromethyl)cyclopropyl)pyrido[3,2-d] pyrimidine-2,4-diamine] | > 7.00 |  | 1000 to 10000
